From patent US6737383B1, “Herbicidal oxadiazolidines” (priority 1999, dated 2004)

Columns and labels:
bamyardgrass = experiment: Test B flood test barnyardgrass; type: in vivo, Echinochloa crus-galli
Summary of the method: (§1)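 Read-out is a visual response score from 0 (no effect) to 10 (complete control), assigned by comparison with untreated controls. Treatment was applied at the 2-leaf stage, and plants stayed in the greenhouse for twelve to sixteen days before scoring.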

rice = experiment: Test B flood test rice; type: in vivo, Oryza sativa
Summary of the method: as §1

giant foxtail = experiment: Test B pre/postemergence giant foxtail; type: in vivo, Setaria faberii
Summary of the method: (§2)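 Response is a visual 0-to-10 score relative to untreated plants, where 0 means no effect and 10 means complete control, taken twelve to sixteen days after application. Treatments went onto soil at planting and onto foliage of 1- to 4-leaf plants, using a surfactant-containing non-phytotoxic solvent.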

bedstraw = experiment: Test B pre/postemergence bedstraw; type: in vivo, Galium aparine
Summary of the method: as §2

purple nutsedge = experiment: Test B pre/postemergence purple nutsedge; type: in vivo, Cyperus rotundus
Summary of the method: as §2

corn = experiment: Test B pre/postemergence corn; type: in vivo, Zea mays
Summary of the method: as §2

wheat = experiment: Test B pre/postemergence wheat; type: in vivo, Triticum aestivum
Summary of the method: as §2

pigweed = experiment: Test B pre/postemergence pigweed; type: in vivo, Amaranthus retroflexus
Summary of the method: as §2

blackgrass = experiment: Test B pre/postemergence blackgrass; type: in vivo, Alopecurus myosuroides
Summary of the method: as §2

cocklebur = experiment: Test B pre/postemergence cocklebur; type: in vivo, Xanthium strumarium
Summary of the method: as §2

crabgrass = experiment: Test B pre/postemergence crabgrass; type: in vivo, Digitaria sanguinalis
Summary of the method: as §2

rape = experiment: Test B pre/postemergence rape; type: in vivo, Brassica napus
Summary of the method: as §2

surinam grass = experiment: Test B pre/postemergence surinam grass; type: in vivo, Brachiaria decumbens
Summary of the method: as §2

wild oat = experiment: Test B pre/postemergence wild oat; type: in vivo, Avena fatua
Summary of the method: as §2

morningglory = experiment: Test B pre/postemergence morningglory; type: in vivo, Ipomoea hederacea
Summary of the method: as §2

sugar beet = experiment: Test B pre/postemergence sugar beet; type: in vivo, Beta vulgaris
Summary of the method: as §2

[1] = Postemergence (flood test species), Rate 125 g/ha, scale of 0 to 10 where 0 is no effect and 10 is complete control
[2] = Rate 62 g/ha, Postemergence section, flood test species, scale of 0 to 10 where 0 is no effect and 10 is complete control
[3] = Rate 250 g/ha, Postemergence (flood test), scale 0 to 10, 0 is no effect, 10 is complete control
[4] = Rate 500 g/ha, listed under Postemergence (flood test species), scale 0 to 10
[5] = Postemergence, Rate 125 g/ha, scale of 0 to 10 where 0 is no effect and 10 is complete control
[6] = Preemergence, Rate 62 g/ha, scale of 0 to 10 where 0 is no effect and 10 is complete control
[7] = Preemergence, Rate 125 g/ha, 0 is no effect, 10 is complete control
[8] = Preemergence, Rate 250 g/ha, scale 0 to 10, 0 is no effect, 10 is complete control
[9] = Preemergence, Rate 500 g/ha, scale 0 to 10 (0 no effect, 10 complete control)
[10] = Rate 62 g/ha, Postemergence, scale of 0 to 10 where 0 is no effect and 10 is complete control
[11] = Rate 250 g/ha, Postemergence, scale 0 to 10, 0 is no effect, 10 is complete control
[12] = Rate 500 g/ha, Postemergence, scale 0 to 10

CC(C)N(C(=O)n1oc(=O)[nH]c1=O)c1ccc(F)cc1 [Compound 164]
Barnyardgrass plant response rating (bamyardgrass; [1]): 0
Barnyardgrass plant response rating (bamyardgrass; [2]): 0
Plant response rating, Barnyardgrass (bamyardgrass; [3]): 0
Barnyardgrass plant response rating (bamyardgrass; [4]): 0
Rice plant response rating (rice; [1]): 0
Rice plant response rating (rice; [2]): 0
Plant response rating, Rice (rice; [3]): 0
Rice plant response rating (rice; [4]): 0
Giant foxtail plant response rating (giant foxtail; [5]): 0
Giant foxtail plant response rating (giant foxtail; [6]): 0
Giant foxtail plant response rating (0 to 10 scale) (giant foxtail; [7]): 0
Giant foxtail plant response rating (giant foxtail; [8]): 0
Giant foxtail plant response rating (giant foxtail; [9]): 2
Giant foxtail plant response rating (giant foxtail; [10]): 0
Plant response rating, Giant foxtail (giant foxtail; [11]): 0
Giant foxtail plant response rating (giant foxtail; [12]): 7
Bedstraw plant response rating (bedstraw; [5]): 0
Bedstraw plant response rating (bedstraw; [6]): 0
Bedstraw plant response rating (0 to 10 scale) (bedstraw; [7]): 0
Bedstraw plant response rating (bedstraw; [8]): 0
Bedstraw plant response rating (bedstraw; [9]): 0
Bedstraw plant response rating (bedstraw; [10]): 0
Nutsedge plant response rating (purple nutsedge; [5]): 0
Nutsedge plant response rating (purple nutsedge; [6]): 0
Nutsedge plant response rating (0 to 10 scale) (purple nutsedge; [7]): 0
Nutsedge plant response rating (purple nutsedge; [8]): 0
Nutsedge plant response rating (purple nutsedge; [9]): 0
Nutsedge plant response rating (purple nutsedge; [10]): 0
Plant response rating, Nutsedge (purple nutsedge; [11]): 0
Nutsedge plant response rating (purple nutsedge; [12]): 0
Corn plant response rating (corn; [5]): 0
Corn plant response rating (corn; [6]): 0
Corn plant response rating (0 to 10 scale) (corn; [7]): 0
Corn plant response rating (corn; [8]): 0
Corn plant response rating (corn; [9]): 0
Corn plant response rating (corn; [10]): 0
Plant response rating, Corn (corn; [11]): 0
Corn plant response rating (corn; [12]): 0
Wheat plant response rating (wheat; [6]): 0
Wheat plant response rating (0 to 10 scale) (wheat; [7]): 0
Wheat plant response rating (wheat; [8]): 0
Wheat plant response rating (wheat; [9]): 0
Plant response rating, Wheat (wheat; [11]): 0
Wheat plant response rating (wheat; [12]): 0
Redroot pigweed plant response rating (pigweed; [5]): 0
Redroot pigweed plant response rating (pigweed; [6]): 0
Redroot pigweed plant response rating (0 to 10 scale) (pigweed; [7]): 0
Redroot pigweed plant response rating (pigweed; [8]): 0
Redroot pigweed plant response rating (pigweed; [9]): 0
Redroot pigweed plant response rating (pigweed; [10]): 0
Plant response rating, Redroot pigweed (pigweed; [11]): 0
Redroot pigweed plant response rating (pigweed; [12]): 0
Blackgrass plant response rating (blackgrass; [5]): 0
Blackgrass plant response rating (blackgrass; [6]): 0
Blackgrass plant response rating (0 to 10 scale) (blackgrass; [7]): 0
Blackgrass plant response rating (blackgrass; [8]): 0
Blackgrass plant response rating (blackgrass; [9]): 0
Blackgrass plant response rating (blackgrass; [10]): 0
Plant response rating, Blackgrass (blackgrass; [11]): 0
Blackgrass plant response rating (blackgrass; [12]): 0
Cocklebur plant response rating (cocklebur; [5]): 0
Cocklebur plant response rating (cocklebur; [6]): 0
Cocklebur plant response rating (0 to 10 scale) (cocklebur; [7]): 0
Cocklebur plant response rating (cocklebur; [8]): 0
Cocklebur plant response rating (cocklebur; [9]): 0
Cocklebur plant response rating (cocklebur; [10]): 0
Plant response rating, Cocklebur (cocklebur; [11]): 0
Cocklebur plant response rating (cocklebur; [12]): 0
Crabgrass plant response rating (crabgrass; [5]): 0
Crabgrass plant response rating (crabgrass; [6]): 0
Crabgrass plant response rating (0 to 10 scale) (crabgrass; [7]): 0
Crabgrass plant response rating (crabgrass; [8]): 0
Crabgrass plant response rating (crabgrass; [9]): 4
Crabgrass plant response rating (crabgrass; [10]): 0
Plant response rating, Crabgrass (crabgrass; [11]): 2
Crabgrass plant response rating (crabgrass; [12]): 9
Rape plant response rating (rape; [5]): 0
Rape plant response rating (rape; [6]): 0
Rape plant response rating (0 to 10 scale) (rape; [7]): 0
Rape plant response rating (rape; [8]): 0
Rape plant response rating (rape; [9]): 0
Rape plant response rating (rape; [10]): 0
Plant response rating, Rape (rape; [11]): 0
Rape plant response rating (rape; [12]): 0
B. signalgrass plant response rating (surinam grass; [5]): 0
B. signalgrass plant response rating (surinam grass; [6]): 0
B. signalgrass plant response rating (0 to 10 scale) (surinam grass; [7]): 0
B. signalgrass plant response rating (surinam grass; [8]): 0
B. signalgrass plant response rating (surinam grass; [9]): 0
B. signalgrass plant response rating (surinam grass; [10]): 0
Plant response rating, B. signalgrass (surinam grass; [11]): 0
B. signalgrass plant response rating (surinam grass; Rate 500 g/ha, Postemergence, scale 0 to 10, 0 no effect, 10 complete control): 0
Wild oats plant response rating (wild oat; [6]): 0
Wild oats plant response rating (0 to 10 scale) (wild oat; [7]): 0
Wild oats plant response rating (wild oat; [8]): 0
Wild oats plant response rating (wild oat; [9]): 0
Plant response rating, Wild oats (wild oat; [11]): 0
Wild oats plant response rating (wild oat; [12]): 0
Morningglory plant response rating (morningglory; [5]): 0
Morningglory plant response rating (morningglory; [6]): 0
Morningglory plant response rating (0 to 10 scale) (morningglory; [7]): 0
Morningglory plant response rating (morningglory; [8]): 0
Morningglory plant response rating (morningglory; [9]): 0
Morningglory plant response rating (morningglory; [10]): 0
Plant response rating, Morningglory (morningglory; [11]): 0
Morningglory plant response rating (morningglory; [12]): 2
Sugarbeets plant response rating (sugar beet; [5]): 0
Sugarbeets plant response rating (sugar beet; [6]): 0
Sugarbeets plant response rating (0 to 10 scale) (sugar beet; [7]): 0
Sugarbeets plant response rating (sugar beet; [8]): 0
Sugarbeets plant response rating (sugar beet; [9]): 0
Sugarbeets plant response rating (sugar beet; [10]): 0
Plant response rating, Sugarbeets (sugar beet; [11]): 0
Sugarbeets plant response rating (sugar beet; [12]): 0
